Measured values published in ChEMBL document CHEMBL1144636, “Quinazolinone fungal efflux pump inhibitors. Part 3: (N-methyl)piperazine variants and pharmacokinetic optimization” (Bioorg Med Chem Lett, 2007).

Assays:
Nakaseomyces glabratus = experiment: In vitro potentiation of fluconazole antifungal activity in Candida glabrata YEM19 assessed as 8 fold reduction in fluconazole MIC; assay type: functional
Serum = experiment: Protein binding in Sprague-Dawley rat serum; assay type: ADME, cell-free; design: concentration or dose not given beside the values
Candida albicans = experiment: In vitro potentiation of fluconazole antifungal activity in Candida albicans YEM15 assessed as 8 fold reduction in fluconazole MIC; assay type: functional
[1] = Stability in Sprague-Dawley rat hepatocyte after 24 hrs; assay type: ADME, cell-based; details: hepatocytes, read-out: Stability
[2] = Total clearance in Sprague-Dawley rat at 5 mg/kg, iv; assay type: ADME, organism-based; design: dose 5 mg/kg, route intravenous; details: in vivo

| Compound | Activity (Nakaseomyces glabratus) | Activity (Serum) | Activity (Candida albicans) | remaining at 24 h [1] | clearance [2] |
| --- | --- | --- | --- | --- | --- |
| COc1ccc(N(C(=O)Nc2ccc(F)cc2)C(C)c2nc3ccccc3c(=O)n2N2CCN(C)CC2)c(OC)c1 (configuration not stated) | 4 µg/mL | 74% | 4 µg/mL | 18% |  |
| CNCC(=O)N1CCN(n2c(C(C)N(C(=O)Nc3ccc(F)cc3)c3ccc(OC)cc3OC)nc3ccccc3c2=O)CC1 (configuration not stated) | 4 µg/mL |  | >32 µg/mL |  |  |
| COc1ccc(N(C(=O)Nc2ccc(F)cc2)C(C)c2nc3ccccc3c(=O)n2N2CCN(C=O)CC2)c(OC)c1 (configuration not stated) | 4 µg/mL |  | 2 µg/mL |  |  |
| COc1ccc(N(C(=O)Nc2ccc(F)cc2)C(C)c2nc3ccccc3c(=O)n2N2CCN(C(=O)[C@H]3CCCN3)CC2)c(OC)c1 (some centres not stated) | 2 µg/mL |  | >32 µg/mL |  |  |
| COC(=O)N[C@@H]1CCN(C(=O)N2CCN(n3c(C(C)N(C(=O)Nc4ccc(F)cc4)c4ccc(OC)cc4OC)nc4ccccc4c3=O)CC2)C1 (some centres not stated) | 0.5 µg/mL |  | 0.25 µg/mL | 4% |  |
| COc1ccc(N(C(=O)Nc2ccc(F)cc2)C(C)c2nc3ccccc3c(=O)n2N2CCNCC2)c(OC)c1 (configuration not stated) | 32 µg/mL |  | >32 µg/mL |  |  |
| COc1ccc(N(C(=O)Nc2ccc(F)cc2)C(C)c2nc3ccccc3c(=O)n2N2CCCCC2)c(OC)c1 (configuration not stated) | >32 µg/mL |  | >32 µg/mL |  |  |
| COC(=O)NCC(=O)N1CCN(n2c(C(C)N(C(=O)Nc3ccc(F)cc3)c3ccc(OC)cc3OC)nc3ccccc3c2=O)CC1 (configuration not stated) | 2 µg/mL |  | >32 µg/mL |  |  |
| COC(=O)N[C@@H](C)C(=O)N1CCN(n2c([C@H](C)N(C(=O)Nc3ccc(F)cc3)c3ccc(OC)cc3OC)nc3cc(F)ccc3c2=O)CC1 | 0.0625 µg/mL | 87% | 0.5 µg/mL |  | 125 mL/min/kg |
| COc1ccc(N(C(=O)Nc2ccc(F)cc2)C(C)c2nc3ccccc3c(=O)n2N2CCN(C(=O)C3CCCC3)CC2)c(OC)c1 (configuration not stated) | 0.125 µg/mL |  | 0.25 µg/mL |  |  |
| COC(=O)N[C@H](C)C(=O)N1CCN(n2c(C(C)N(C(=O)Nc3ccc(F)cc3)c3ccc(OC)cc3OC)nc3ccccc3c2=O)CC1 (some centres not stated) | 0.5 µg/mL | 82% | 4 µg/mL | 7% |  |
| COc1ccc(N(C(=O)Nc2cccc(Cl)c2)C(C)c2nc3ccccc3c(=O)n2N2CCN(C)CC2)c(OC)c1 (configuration not stated) | 4 µg/mL | 98% | 1 µg/mL |  | 83.3 mL/min/kg |
| COc1ccc(N(C(=O)Nc2ccc(F)cc2)C(C)c2nc3ccccc3c(=O)n2N2CCN(C(=O)[C@@H]3CCCN3)CC2)c(OC)c1 (some centres not stated) | 4 µg/mL | 77% | >32 µg/mL | 77% |  |
| COc1ccc(N(C(=O)Nc2ccc(F)cc2)C(C)c2nc3ccccc3c(=O)n2N2CCN(C(=O)C3CCCO3)CC2)c(OC)c1 (configuration not stated) | 0.125 µg/mL |  | 0.5 µg/mL |  |  |
| COc1ccc(N(C(=O)Nc2ccc(F)cc2)C(C)c2nc3ccccc3c(=O)n2N2CCN(C(=O)[C@@H]3CCCN3C)CC2)c(OC)c1 (some centres not stated) | 2 µg/mL |  | 32 µg/mL |  |  |
| COc1ccc(N(C(=O)Nc2ccc(F)cc2)C(C)c2nc3ccccc3c(=O)n2N2CCN(C(=O)N3CCCC3)CC2)c(OC)c1 (configuration not stated) | <0.03 µg/mL |  | 0.0625 µg/mL | 0% |  |

| Compound | Activity (Nakaseomyces glabratus) | Activity (Serum) | Activity (Candida albicans) | remaining at 24 h [1] | clearance [2] |
| --- | --- | --- | --- | --- | --- |
| COC(=O)N(C)[C@@H](C)C(=O)N1CCN(n2c(C(C)N(C(=O)Nc3ccc(F)cc3)c3ccc(OC)cc3OC)nc3ccccc3c2=O)CC1 (some centres not stated) | 0.5 µg/mL |  | 0.5 µg/mL |  |  |
| COC(=O)N[C@@H](C)C(=O)N1CCN(n2c(C(C)N(C(=O)Nc3ccc(F)cc3)c3ccc(OC)cc3OC)nc3ccccc3c2=O)CC1 (some centres not stated) | 0.25 µg/mL | 82% | 2 µg/mL | 39% |  |
| COC(=O)N[C@@H](CO)C(=O)N1CCN(n2c(C(C)N(C(=O)Nc3ccc(F)cc3)c3ccc(OC)cc3OC)nc3ccccc3c2=O)CC1 (some centres not stated) | 8 µg/mL |  | 32 µg/mL |  |  |
| COC(=O)N[C@H](C(=O)N1CCN(n2c(C(C)N(C(=O)Nc3ccc(F)cc3)c3ccc(OC)cc3OC)nc3ccccc3c2=O)CC1)[C@H](C)O (some centres not stated) | 2 µg/mL |  | 2 µg/mL |  |  |
| COc1ccc(N(C(=O)Nc2ccc(F)cc2)C(C)c2nc3ccccc3c(=O)n2N2CCN(C[C@@H]3CCCN3)CC2)c(OC)c1 (some centres not stated) | 2 µg/mL |  | 32 µg/mL |  |  |
| COC(=O)N[C@H]1CCN(C(=O)N2CCN(n3c(C(C)N(C(=O)Nc4ccc(F)cc4)c4ccc(OC)cc4OC)nc4ccccc4c3=O)CC2)C1 (some centres not stated) | 0.25 µg/mL |  | 4 µg/mL | 23% |  |
| CCOC(=O)N1CCN(n2c(C(C)N(C(=O)Nc3ccc(F)cc3)c3ccc(OC)cc3OC)nc3ccccc3c2=O)CC1 (configuration not stated) | 0.5 µg/mL |  | 0.25 µg/mL |  |  |
| CCNC(=O)N1CCN(n2c(C(C)N(C(=O)Nc3ccc(F)cc3)c3ccc(OC)cc3OC)nc3ccccc3c2=O)CC1 (configuration not stated) | 1 µg/mL |  | 1 µg/mL |  |  |
| COc1ccc(N(C(=O)Nc2ccc(F)cc2)C(C)c2nc3ccccc3c(=O)n2N2CCN(C(N)=O)CC2)c(OC)c1 (configuration not stated) | 16 µg/mL |  | 8 µg/mL |  |  |
| COc1ccc(N(C(=O)Nc2ccc(F)cc2)C(C)c2nc3ccccc3c(=O)n2N2CCN(C(=O)[C@@H]3CCCN3C3CC3)CC2)c(OC)c1 (some centres not stated) | 0.25 µg/mL |  | 1 µg/mL |  |  |
| COc1ccc(N(C(=O)Nc2ccc(F)cc2)C(C)c2nc3ccccc3c(=O)n2N2CCN(C(=O)[C@H](C)N3CCCC3)CC2)c(OC)c1 (some centres not stated) | 0.25 µg/mL |  | 8 µg/mL |  |  |
| COc1ccc(N(C(=O)Nc2ccc(F)cc2)C(C)c2nc3ccccc3c(=O)n2N2CCN(C(=O)CN3CCCC3)CC2)c(OC)c1 (configuration not stated) | 1 µg/mL |  | 4 µg/mL |  |  |
| COc1ccc(N(C(=O)Nc2ccc(F)cc2)C(C)c2nc3ccccc3c(=O)n2N2CCN(C(=O)C[C@@H]3CCCN3)CC2)c(OC)c1 (some centres not stated) | 0.5 µg/mL |  | >32 µg/mL |  |  |
| COC(=O)N[C@H](C(=O)N1CCN(n2c(C(C)N(C(=O)Nc3ccc(F)cc3)c3ccc(OC)cc3OC)nc3ccccc3c2=O)CC1)C(C)C (some centres not stated) | 2 µg/mL |  | 1 µg/mL |  |  |
| COc1ccc(N(C(=O)Nc2ccc(F)cc2)C(C)c2nc3ccccc3c(=O)n2N2CCN(C(=O)[C@H](C)N)CC2)c(OC)c1 (some centres not stated) | 4 µg/mL |  | >32 µg/mL |  |  |
